From US20030113322A1, “CDR-H1-derived peptide CB11, pharmaceutical compositions made therefrom and methods of treating disorders in mammals” (priority 2001, published 2003)
Positions of bridges follow the written chain, without caps; N, C: chain ends. Residues, ends and D or L forms follow the SMILES beside them. No end group written: not given here.

Tests used:
[1] = type: in vitro ADME
Description: A relatively high concentration of peptides is preferred to achieve efficient biological activity with regard to the efficient antibody dose. […] We believe that use of D-amino acids for peptide synthesis would improve their metabolic stability.

[2] = test system: pdb10F T cells stimulated by pep24-pulsed EBV-Lu antigen-presenting cells; test: IL-2 secretion assay following antigen presentation; type: cell-based, murine; settings: for inhibition of IL2 secretion: Example 2, Table 1 (table not given)
[3] = test system: HeLa P4 indicator cells infected with HIV-1Lai; test: HIV-1 promoter activation assay (LTR-driven β-galactosidase); type: cell-based
Method: (§1) HeLa P4 indicator cells (8×10^4 cells/ml) were cultured in medium supplemented or not with infectious HIV-1Lai in the presence or absence of antibodies for three days, harvested and lysed. β-galactosidase activity was then determined as previously described by measuring the absorbance at 410 nm.
as §1, with “with 1000 TCID50 of” for “with”, “peptides or mAb” for “antibodies”, “3” for “three”, “lysed. The” for “lysed.”, “activities were” for “activity was”

[4] = target: T1, His6-sCD4 (Homo sapiens, UniProt P01730); test: ELISA binding of His6-sCD4 to coated cyclic PDPs; settings: 20 nM His6-sCD4, FIG. 8
T1 construct: codons 1 to 6, and the anti-sense primer SCD4RTB (5′-[…]), which contains the reverse complement of codons 367 to 372; made in house; host or cells: Spodoptera frugiperda Sf9 cells, baculovirus (p119L vector, P10 promoter)
Method: Three replicates corresponding to 10-fold serial dilutions of the nine cyclic PDPs (CB1-CB9) were coated overnight at 4° C. onto 96-well ELISA plates (Nunc. Paisley, UK) with an initial peptide concentration of 50 μM. Four washes in 160 mM PBS, pH 7.2, containing 0.1% Tween 20 (PBS-T) were performed before and after saturating the wells with 1% non-fat dry milk in PBT-T for 1 h at 37° C. Thereafter, 100 μl of 20 nM His6-sCD4 was added to each well. Following a 2 h incubation and four washes in PBS-T, bound His6-sCD4 was detected by addition of 100 μl of a 1:2000 solution of peroxidase-conjugated anti-His6 mAb (Sigma) and subsequent addition of peroxidase substrate. Absorbance was measured at 490 nm.

[5] = peptide diluted in 20% acetonitrile buffer

Compound | inhibition of HIV-1Lai LTR-driven β-galactosidase expression [3, 5] | inhibition of IL2 secretion [2] | inhibition of HIV-1Lai LTR-driven β-galactosidase expression ([3]; Example 2, 3 days, FIG. 10A) | CD4 binding of coated cyclic peptide [4] | further results
CC(C)C[C@@H]1NC(=O)[C@@H](NC(=O)[C@@H](N)CCCCN)CSSC[C@@H](C(=O)N[C@@H](CCCCN)C(N)=O)NC(=O)[C@H](CO)NC(=O)[C@H](CCC(N)=O)NC(=O)[C@H](CCCNC(=N)N)NC(=O)[C@H](C(C)C)NC(=O)[C@H](Cc2c[nH]c3ccccc23)NC(=O)[C@H](Cc2c[nH]cn2)NC(=O)[C@H](C(C)C)NC(=O)CNC(=O)[C@H](Cc2ccccc2)NC(=O)[C@H]([C@@H](C)O)NC(=O)[C@H]([C@@H](C)O)NC1=O [CB1] (H-KCLTTFGVHWVRQSCK-NH2; disulfide 2-15; N-terminus and C-terminus assumed) | no inhibition | – | – | – | decrease in binding of CD4 to peptide after pre-incubation [1]: 50%; concentration range with inhibitory activity of IL2 secretion ([2]; Example 2): 125 to 250 µM; inhibition of HIV-1Lai LTR-driven β-galactosidase expression ([3]; 50 μM peptide, 3 days, FIG. 10A): significant inhibition; IC50 ([3]; FIG. 10B, read-out: IC50 of inhibition of β-galactosidase activity): ~15 µM
CC[C@H](C)[C@@H]1NC(=O)[C@@H](NC(=O)[C@@H](N)CCCCN)CSSC[C@@H](C(=O)N[C@@H](CCCCN)C(N)=O)NC(=O)[C@H](CCC(N)=O)NC(=O)[C@H](CCCCN)NC(=O)[C@H](CCC(N)=O)NC(=O)[C@H](CCC(N)=O)NC(=O)[C@H](Cc2ccc(O)cc2)NC(=O)[C@H](Cc2c[nH]c3ccccc23)NC(=O)[C@H](C)NC(=O)[C@H](CC(C)C)NC(=O)[C@H](Cc2ccc(O)cc2)NC(=O)[C@H](CO)NC(=O)[C@H](Cc2ccc(O)cc2)NC1=O [CB8] (H-KCIYSYLAWYQQKQCK-NH2; disulfide 2-15) | lack of activity | lack of activity | – | – | –
FGDYYCLQYASS (not fully specified (N-terminus, C-terminus, bridges); also: cyclized (bridge not given here)) [Dig97c, unrelated peptide derived from the CDR-L3 region of the anti-digoxin 1C10 mAb, reference compound] | – | – | did not affect | – | –
GSDQWNKMQYYP (not fully specified (N-terminus, C-terminus, bridges); also: cyclized (bridge not given here)) [ScCM9, scrambled form of PDP CM9, Lys-Cys added at both termini, reference compound] | – | no inhibition | did not affect | non-reactivity | –
KEEICEVEDQTY (not fully specified (N-terminus, C-terminus, bridges); also: cyclized (bridge not given here)) [ScCDR3-like, scrambled form of the CD4-derived CDR3-like peptide] | – | – | – | non-reactivity | –
